Reference: patent US20040053847A1, “Diastereomeric peptitdes and pharmaceutical compositions comprising them” (priority 2000, published 2004)
In brackets after ≈: the same amount, converted by molar mass. Values belong to the compound of their own block, whether it stands above or below them. Square brackets hold non-standard residues; d marks the D form. Peptide text beside a SMILES is read from it.

Tests used:
[1] = test system: Aspergillus niger ATCC 9642; format: cell-based; conditions: ATCC 9642
Experimental: (§1) The antifungal activity of the diastereomers was examined in sterile 96-well plates (Nunc F96 microtiter plates) in a final volume of 200 μL as follows: 100 μl of a suspension containing fungi at concentration of 1×10^4 Colony-Forming Units (CFU)/ml in culture medium (RPMI 1640, 0.165 M MOPS pH 7.0, with L-glutamine, without NaHCO3) was added to 100 μl of water containing the peptide in serial 2-fold dilutions in water. The fungi were incubated in the presence of the diastereomeric peptides for 24-48 h at 35° C. in a Binder KB115 incubator under agitation. Growth inhibition was determined by measuring the absorbance at 620 nm with a Microplate autoreader E1309 (Bio-tek Instruments). Antifungal activity is expressed as the minimal inhibitory concentration (MIC), the concentration at which 100% inhibition of growth was observed after the incubation time mentioned above. The fungi used were: Aspergillus niger ATCC 9642, Candida albicans ATCC 10231 and Cryptococcus neoformans ATCC 66031.

[2] = test system: Candida albicans ATCC 10231; format: cell-based; conditions: ATCC 10231
Experimental: as §1

[3] = test system: Cryptococcus neoformans ATCC 66031; format: cell-based
Experimental: as §1

[4] = test system: B16 F10 mouse melanoma cell line; experiment: In vitro anticancer activity, Trypan blue cell viability, LC50; conditions: 50% cell mortality after 24 h incubation, medium without serum
Experimental: The anticancer activity of the diastereomers 1, 2, 8, 9 and 10 was examined against B16 F10 mouse melanoma cell line. Melanoma cells were grown in RPMI-1640 medium supplemented with 10% fetal calf serum and antibiotics, at 37° C., in humidified atmosphere at 5% CO2 and 95% air. In addition, the cell-selectivity of the diastereomeric peptides was studied by examining their effect on NIH-3T3 normal fibroblasts cell line. NIH-3T3 mouse fibroblasts cells were grown in DMEM medium supplemented with 10% bovine calf serum and antibiotics under the same conditions as described above for B16 F10 mouse melanoma cells. Melanoma cells (2×10^5 cells ml^−1) or NIH-3T3 cells (2.5×10^5 cells ml^−1) were seeded in tissue culture plates (3.5 cm). After 48 h, cells were washed thrice with the corresponding medium. Then the cells were incubated at 37° C. in medium (without serum and antibiotics) in the presence of the tested diastereomeric peptides dissolved in PBS, at different concentrations. […] Following 24 h of incubation, the cells were harvested with trypsin (0.25%)-EDTA (0.05%) and centrifuiged for 10 min at 270×g. The precipitated cells were suspended in the corresponding medium and counted in a hemocytometer (Neubauer). Cell viability was determined by Trypan blue dye exclusion.

[5] = Cell selectivity, Trypan blue cell viability, LC50; format: cell-based, mouse; conditions: mouse, NIH-3T3 fibroblasts; 50% cell mortality after 24 h incubation, medium without serum; read-out: Lethal Concentration (LC50), NIH-3T3 fibroblasts
[6] = test system: A549 lung carcinoma; format: cell-based, human; conditions: 24 h
Experimental: (§2) Aliquots of 100 μl of tumor cell suspension (about 2.5-5×10^3/well) were placed in 96-well microtiter plates in an atmosphere of 5% CO2 at 37° C. […] At the end of incubation, 20 μl of AlamarBlue 75% reagent was added to each well for another 6-hour incubation before detection of cell viability by fluorescence intensity. Fluorescence intensity was measured using a Spectraflour Plus plate reader with excitation at 530 nm and emission at 590 nm. The assays were used to detect changes in cell proliferation based on the ability of viable cells to cause AlamarBlue to change from its oxidized (non-fluorescent, blue) to a reduced (fluorescent, red) form. With the results obtained from the AlamarBlue reaction, cell proliferation can be quantified and metabolic activity of viable cells can be examined.

[7] = test system: HT-29 colon adenocarcinoma; format: cell-based, human; conditions: 24 h
Experimental: as §2

[8] = test system: MCF-7 breast adenocarcinoma; format: cell-based, human; conditions: 24 h
Experimental: as §2

[9] = test system: PC-3 prostate adenocarcinoma; format: cell-based, human; conditions: 24 h
Experimental: as §2

[10] = test system: SK-MEL- (ATCC HTB-70) malignant melanoma; format: cell-based, human; conditions: 24 h
Experimental: as §2

[11] = test system: human breast MCF-7 cells; experiment: Xenograft model of human breast MCF-7 cells in SCID mice; format: in vivo
Experimental: The in-vivo anticancer assay was conducted on SCID (Severe Combined Immune Deficiency) mice using the xenograft model of human breast MCF-7 cells. Groups of 6 SCID female mice weighing 18-20 g (6-week old), bred in an animal isolator (IVC racks under specific pathogen-free (SPF) conditions at 24±1° C., were used. Viable human breast carcinoma MCF-7 cells (ATCC HTB-22−1×10^7 cells in 0.2 ml of PBS) were injected subcutaneously (s.c.) into the dorsal side of SCID mice. 50 μg/mouse of estradiol benzoate was injected s.c. weekly as a supplement for 4 weeks. […] Mitomycin at a dose of 2 mg/kg was administered intraperitoneally (IP) twice a week for 5 doses. The tumor size, body weight and the signs of overt animal toxicity after each treatment were recorded and observed. At the end of the experiment, hematological analysis was carried out.

[12] = Hematology analysis on Day 25, MEAN ± SEM
[13] = hematological analysis at the end of the assay
[14] = peptide 9 3 mg/kg IV, mitomycin 2 mg/kg IP

SMILES: CC(C)C[C@H](NC(=O)CN)C(=O)N[C@H](CC(C)C)C(=O)N[C@@H](CCCCN)C(=O)N[C@@H](CC(C)C)C(=O)N[C@@H](CC(C)C)C(=O)N[C@H](CCCCN)C(=O)N[C@H](CCCCN)C(=O)N[C@@H](CC(C)C)C(=O)N[C@H](CC(C)C)C(=O)N[C@@H](CCCCN)C(=O)N[C@@H](CC(C)C)C(=O)N[C@H](CC(C)C)C(=O)N[C@@H](CC(C)C)C(=O)N[C@@H](CCCCN)C(=O)N[C@@H](CCCCN)C(N)=O [Peptide 8, [D]-L^3,10,13,K^7,8-GK6L9] (H-GL[dL]KLL[dK][dK]L[dL]KL[dL]LKK-NH2; N-terminus assumed)
- MIC, A. niger ATCC 9642 [1]: 30 µg/mL (≈ 16.1 µM)
- MIC, C. albicans ATCC 10231 [2]: 30 µg/mL (≈ 16.1 µM)
- MIC, C. neoformans ATCC 66031 [3]: 1.5 µg/mL (≈ 0.806 µM)
- Lethal Concentration (LC50), B16-F10 melanoma [4]: 9 µg/mL
- CC50 at 24 h [5]: 30 µg/mL (≈ 16.1 µM)

SMILES: CC(C)C[C@H](NC(=O)[C@H](CC(C)C)NC(=O)[C@@H](CCCCN)NC(=O)[C@H](CC(C)C)NC(=O)[C@H](CC(C)C)NC(=O)[C@H](CCCCN)NC(=O)[C@@H](CCCCN)NC(=O)[C@@H](CC(C)C)NC(=O)[C@H](CC(C)C)NC(=O)[C@@H](CCCCN)NC(=O)[C@H](CCCCN)NC(=O)[C@H](CC(C)C)NC(=O)[C@@H](CC(C)C)NC(=O)[C@H](CCCCN)NC(=O)[C@@H](N)CC(C)C)C(N)=O [Peptide 4, [D]-L^3,8,K^6,9,13-K6L9] (H-LK[dL]LK[dK]L[dL][dK]KLL[dK]LL-NH2; N-terminus assumed)
- MIC, A. niger ATCC 9642 [1]: 180 µg/mL (≈ 99.7 µM)
- MIC, C. albicans ATCC 10231 [2]: 50 µg/mL (≈ 27.7 µM)
- MIC, C. neoformans ATCC 66031 [3]: 5.6 µg/mL (≈ 3.1 µM)

SMILES: CC(C)C[C@H](NC(=O)[C@H](CC(C)C)NC(=O)[C@@H](CCCCN)NC(=O)[C@@H](CCCCN)NC(=O)[C@H](CC(C)C)NC(=O)[C@@H](CC(C)C)NC(=O)[C@H](CCCCN)NC(=O)[C@H](CC(C)C)NC(=O)[C@@H](CC(C)C)NC(=O)[C@H](CC(C)C)NC(=O)[C@@H](N)CCCCN)C(=O)N[C@@H](CCCCN)C(=O)N[C@H](CC(C)C)C(=O)N[C@@H](CC(C)C)C(=O)N[C@@H](CCCCN)C(N)=O [Peptide 10, [D]-L^3,6,13,K^8,9,13-K6L9] (H-KL[dL]LK[dL]L[dK][dK]LLK[dL]LK-NH2; N-terminus assumed)
- CC50 at 24 h [5]: 140 µg/mL (≈ 77.6 µM)
- IC50 [6]: 2400 nM
- IC50 [7]: 15 µM
- IC50 [8]: 3.6 µM
- IC50 [9]: 8.9 µM
- IC50 [10]: 2600 nM

SMILES: CO[C@@]12[C@H](COC(N)=O)C3=C(C(=O)C(C)=C(N)C3=O)N1C[C@@H]1N[C@@H]12 [Mitomycin C, mitomycin C]
- PLT [11, 12]: 396000 µL⁻¹
- RBC [11, 12]: 10.55 ± 0.37 × 10^6/μl
- WBC [11, 12]: 670 µL⁻¹
- Reduction of RBC [11, 13]: significant reduction
- Reduction of WBC and platelets [11, 13]: significant reduction
- Effect on tumor growth (FIG. 1) ([11]; peptide 9 3 mg/kg IV twice a week, 6 doses, mitomycin 2 mg/kg IP twice a week, 5 doses): more potent than peptide 9
- Body weight and condition of animals (FIG. 2) [11, 14]: signs of weakness and loss of weight
- Side effects in treated animals [11, 14]: severe side effects throughout the assay period

Continued, values first:

- MIC, A. niger ATCC 9642 [1]: 90 µg/mL (≈ 49.9 µM)
- MIC, C. albicans ATCC 10231 [2]: 40 µg/mL (≈ 22.2 µM)
- MIC, C. neoformans ATCC 66031 [3]: 2.8 µg/mL (≈ 1.55 µM)
SMILES: CC(C)C[C@H](NC(=O)[C@H](CC(C)C)NC(=O)[C@@H](CCCCN)NC(=O)[C@H](CC(C)C)NC(=O)[C@H](CC(C)C)NC(=O)[C@H](CCCCN)NC(=O)[C@@H](CCCCN)NC(=O)[C@@H](CC(C)C)NC(=O)[C@H](CC(C)C)NC(=O)[C@H](CCCCN)NC(=O)[C@H](CCCCN)NC(=O)[C@H](CC(C)C)NC(=O)[C@@H](CC(C)C)NC(=O)[C@H](CCCCN)NC(=O)[C@@H](N)CC(C)C)C(N)=O [Peptide 3, [D]-L^3,8,K^9,13-K6L9] (H-LK[dL]LKKL[dL][dK]KLL[dK]LL-NH2; N-terminus assumed)

- MIC, A. niger ATCC 9642 [1]: 50 µg/mL (≈ 26.1 µM)
- MIC, C. albicans ATCC 10231 [2]: 50 µg/mL (≈ 26.1 µM)
- MIC, C. neoformans ATCC 66031 [3]: 3 µg/mL (≈ 1.56 µM)
SMILES: CC(C)C[C@H](NC(=O)CN)C(=O)N[C@H](CC(C)C)C(=O)N[C@@H](CC(C)C)C(=O)N[C@@H](CCCNC(=N)N)C(=O)N[C@H](CC(C)C)C(=O)N[C@@H](CC(C)C)C(=O)N[C@H](CCCCN)C(=O)N[C@H](CCCCN)C(=O)N[C@@H](CC(C)C)C(=O)N[C@@H](CC(C)C)C(=O)N[C@@H](CCCNC(=N)N)C(=O)N[C@H](CC(C)C)C(=O)N[C@@H](CC(C)C)C(=O)N[C@@H](CCCCN)C(=O)N[C@@H](CCCCN)C(N)=O [Peptide 5, [D]-L^3,6,13,K^8,9-GK4R2L9] (H-GL[dL]LR[dL]L[dK][dK]LLR[dL]LKK-NH2; N-terminus assumed)

- MIC, A. niger ATCC 9642 [1]: 50 µg/mL (≈ 27.7 µM)
- MIC, C. albicans ATCC 10231 [2]: 50 µg/mL (≈ 27.7 µM)
- MIC, C. neoformans ATCC 66031 [3]: 2.9 µg/mL (≈ 1.61 µM)
SMILES: CC(C)C[C@H](NC(=O)[C@H](CCCCN)NC(=O)[C@@H](CC(C)C)NC(=O)[C@H](CC(C)C)NC(=O)[C@@H](N)CCCCN)C(=O)N[C@@H](CC(C)C)C(=O)N[C@H](CCCCN)C(=O)N[C@H](CCCCN)C(=O)N[C@@H](CC(C)C)C(=O)N[C@H](CC(C)C)C(=O)N[C@@H](CCCCN)C(=O)N[C@@H](CC(C)C)C(=O)N[C@H](CC(C)C)C(=O)N[C@@H](CC(C)C)C(=O)N[C@@H](CCCCN)C(N)=O [Peptide 7, [D]-L^3,10,13,K^7,8-K6L9] (H-KL[dL]KLL[dK][dK]L[dL]KL[dL]LK-NH2; N-terminus assumed)
